Measurements as given in ChEMBL document CHEMBL4619788, “Chemically Induced Degradation of FAK-ALK for Application in Cancer Therapeutics” (ACS Med Chem Lett, 2020).

Legend:
[1] = molecular target: T1, Protein cereblon/Focal adhesion kinase 1 (Homo sapiens) (UniProt Q05397+Q96SW2); test: Protac activity at CRBN/FAK in human PA-TU-8988T cells assessed as induction of FAK degradation at 10 nM incubated for 4 hrs by immunoblot assay relative to control; format: cell-based
[2] = molecular target: T1, Protein cereblon/Focal adhesion kinase 1 (Homo sapiens); test: Protac activity at CRBN/FAK in human PA-TU-8988T cells assessed as induction of FAK degradation at 100 nM incubated for 4 hrs by immunoblot assay relative to control; format: cell-based

T1 sequence (Q05397 2-1052 limits assumed): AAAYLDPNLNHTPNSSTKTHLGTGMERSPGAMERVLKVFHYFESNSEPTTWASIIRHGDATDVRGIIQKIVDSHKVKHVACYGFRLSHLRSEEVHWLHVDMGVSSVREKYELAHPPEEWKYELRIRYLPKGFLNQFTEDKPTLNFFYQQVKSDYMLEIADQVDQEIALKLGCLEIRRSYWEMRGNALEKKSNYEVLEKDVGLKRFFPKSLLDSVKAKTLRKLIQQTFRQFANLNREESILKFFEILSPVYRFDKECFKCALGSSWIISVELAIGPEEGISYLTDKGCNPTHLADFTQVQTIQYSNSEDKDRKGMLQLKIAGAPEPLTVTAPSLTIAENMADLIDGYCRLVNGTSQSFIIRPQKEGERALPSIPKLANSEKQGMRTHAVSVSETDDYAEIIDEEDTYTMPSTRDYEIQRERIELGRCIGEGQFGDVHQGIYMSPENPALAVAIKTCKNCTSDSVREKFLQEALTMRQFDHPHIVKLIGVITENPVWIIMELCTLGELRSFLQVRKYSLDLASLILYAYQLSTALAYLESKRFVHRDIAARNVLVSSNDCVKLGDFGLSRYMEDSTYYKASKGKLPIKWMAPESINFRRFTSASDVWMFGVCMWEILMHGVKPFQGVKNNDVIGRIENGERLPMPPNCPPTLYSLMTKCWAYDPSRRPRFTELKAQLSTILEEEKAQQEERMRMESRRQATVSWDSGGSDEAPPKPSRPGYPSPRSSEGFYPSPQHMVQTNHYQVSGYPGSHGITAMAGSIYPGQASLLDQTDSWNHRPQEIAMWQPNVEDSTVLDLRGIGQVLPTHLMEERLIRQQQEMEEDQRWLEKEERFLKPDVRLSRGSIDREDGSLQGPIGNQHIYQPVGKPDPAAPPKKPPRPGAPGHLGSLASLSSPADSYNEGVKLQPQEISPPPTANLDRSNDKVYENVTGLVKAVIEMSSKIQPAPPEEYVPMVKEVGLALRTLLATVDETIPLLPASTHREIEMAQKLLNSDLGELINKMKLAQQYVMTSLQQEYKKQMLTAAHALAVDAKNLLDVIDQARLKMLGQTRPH
T1 sequence (Q96SW2 whole entry partner): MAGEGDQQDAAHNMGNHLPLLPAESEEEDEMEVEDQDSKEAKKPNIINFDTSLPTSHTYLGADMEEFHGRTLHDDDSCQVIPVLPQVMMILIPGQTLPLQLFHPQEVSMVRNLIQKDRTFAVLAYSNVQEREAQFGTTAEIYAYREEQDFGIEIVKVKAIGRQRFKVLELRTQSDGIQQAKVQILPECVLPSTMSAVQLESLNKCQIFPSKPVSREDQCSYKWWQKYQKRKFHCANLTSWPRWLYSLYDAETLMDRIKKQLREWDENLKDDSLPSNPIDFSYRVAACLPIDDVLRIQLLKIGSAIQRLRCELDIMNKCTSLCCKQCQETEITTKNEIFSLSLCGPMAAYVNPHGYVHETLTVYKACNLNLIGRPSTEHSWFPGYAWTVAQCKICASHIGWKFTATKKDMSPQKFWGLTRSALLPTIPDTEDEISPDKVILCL

Compound	Activity [1]	Activity [2]
CNC(=O)c1ccccc1Nc1cc(Nc2ccc(N3CCN(CCCCCCCCNC(=O)CNc4cccc5c4C(=O)N(C4CCC(=O)NC4=O)C5=O)CC3)cc2OC)ncc1C(F)(F)F (configuration not stated)	85 to 100%	85 to 100%
CS(=O)(=O)c1cccc(CNc2nc(Nc3ccc(C(=O)NCCCCCCCCNC(=O)COc4cccc5c4C(=O)N(C4CCC(=O)NC4=O)C5=O)cc3)ncc2C(F)(F)F)c1 (configuration not stated)	25 to 49%	85 to 100%
CNC(=O)c1ccccc1Nc1cc(Nc2cc(C)c(C3CCN(CCCCCCNC(=O)COc4cccc5c4C(=O)N(C4CCC(=O)NC4=O)C5=O)CC3)cc2OC(C)C)ncc1C(F)(F)F (configuration not stated)	85 to 100%	85 to 100%

Results, then the compound that gave them:

Activity [1]	Activity [2]	Compound
70 to 84%	85 to 100%	CNC(=O)c1ccccc1Nc1cc(Nc2ccc(N3CCN(CCOCCOCCNC(=O)CNc4cccc5c4C(=O)N(C4CCC(=O)NC4=O)C5=O)CC3)cc2OC)ncc1C(F)(F)F (configuration not stated)
85 to 100%	85 to 100%	CNC(=O)c1ccccc1Nc1cc(Nc2ccc(N3CCN(CCCCCCNC(=O)COc4cccc5c4C(=O)N(C4CCC(=O)NC4=O)C5=O)CC3)cc2OC)ncc1C(F)(F)F (configuration not stated)
85 to 100%	85 to 100%	CNC(=O)c1ccccc1Nc1cc(Nc2ccc(N3CCN(CCCCCCCCNc4cccc5c4C(=O)N(C4CCC(=O)NC4=O)C5=O)CC3)cc2OC)ncc1C(F)(F)F (configuration not stated)
